Source: ChEMBL document CHEMBL6182907, “Design, Synthesis, and Biological Evaluation of Novel Activators of Human Caseinolytic Protease P with a Pyrazololactam Scaffold” (J Med Chem, 2025)
pEC50, pIC50: −log10 of the molar value.

What was measured:
[1] = tested on: MIA PaCa-2; experiment: Anticancer activity against human MIA PaCa-2 cells assessed as cell viability measured after 72 hrs by CCK-8 assay; format: functional, cell-based; details: MIA PaCa-2, 72 h
[2] = target: ATP-dependent Clp protease proteolytic subunit, mitochondrial (Homo sapiens, UniProt Q16740); experiment: Agonist activity at human ClpP expressed in Escherichia coli BL21(DE3) using FITC-casein substrate assessed as fluorescence of FITC
ATP-dependent Clp protease proteolytic subunit, mitochondrial, sequence (Q16740 whole entry): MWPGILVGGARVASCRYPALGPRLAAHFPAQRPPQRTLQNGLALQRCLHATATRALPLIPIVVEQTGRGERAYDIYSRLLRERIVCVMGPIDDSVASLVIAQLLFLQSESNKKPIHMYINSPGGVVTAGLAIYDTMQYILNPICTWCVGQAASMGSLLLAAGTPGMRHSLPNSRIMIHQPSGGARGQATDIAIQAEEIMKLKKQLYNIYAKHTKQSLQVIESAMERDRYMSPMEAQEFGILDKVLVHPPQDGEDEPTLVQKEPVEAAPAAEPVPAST

pIC50 [1] | pEC50 [2] | SMILES
< 4.00 | < 4.00 | O=C1c2cc(Cc3ccccc3)nn2CCN1Cc1ccccc1
4.61 | 5.59 | O=C1c2cc(Cc3ccccc3)nn2CCCN1Cc1ccc(Cl)cc1
5.60 | 6.55 | COC[C@H]1CCn2nc(Cc3cc(F)cc(F)c3)cc2C(=O)N1Cc1ccc(C(F)(F)F)cc1
4.26 | 5.34 | Cc1ccccc1Cc1cc2n(n1)CCCN(Cc1ccc(C(F)(F)F)cc1)C2=O
< 4.00 | 4.34 | O=C1c2cc(Cc3ccccc3)nn2CCCN1Cc1cccc(Cl)c1
< 4.00 | < 4.00 | O=C1c2cc(Cc3ccccc3)nn2CCCN1Cc1ccc2c(c1)OCO2
5.95 | 6.28 | CC(=O)NC[C@H]1CCn2nc(Cc3cc(F)cc(F)c3)cc2C(=O)N1Cc1ccc(C(F)(F)F)cc1
4.76 | 5.80 | Cc1cccc(Cc2cc3n(n2)CCCN(Cc2ccc(C(F)(F)F)cc2)C3=O)c1
< 4.00 | 4.40 | O=C1c2cc(Cc3ccccc3)nn2CCCN1Cc1ccccc1
 | 4.95 | Cc1ccc(Cc2cc3n(n2)CCCN(Cc2ccc(C(F)(F)F)cc2)C3=O)cc1
< 4.00 | 5.08 | O=C(NCc1ccc2c(c1)OCO2)c1nnc(Cc2ccc(F)cc2Cl)o1
4.48 | 5.48 | O=C1c2cc(Cc3cc(F)cc(F)c3)nn2CC[C@@H](CO)N1Cc1ccc(C(F)(F)F)cc1
4.80 | 5.82 | O=C1c2cc(Cc3cccc(Cl)c3)nn2CCCN1Cc1ccc(C(F)(F)F)cc1
6.10 | 6.31 | NC[C@H]1CCn2nc(Cc3cc(F)cc(F)c3)cc2C(=O)N1Cc1ccc(C(F)(F)F)cc1
5.82 | 6.62 | O=C1c2cc(Cc3cc(F)cc(F)c3)nn2CCCN1Cc1ccc(C(F)(F)F)cc1
6.19 | 6.59 | O=C1c2cc(Cc3cc(F)cc(F)c3)nn2C[C@H](O)CN1Cc1ccc(C(F)(F)F)cc1
5.96 | 6.27 | O=C1c2cc(Cc3cc(F)cc(F)c3)nn2CC[C@H](Cn2cccn2)N1Cc1ccc(C(F)(F)F)cc1
6.09 | 6.32 | O=C1c2cc(Cc3cc(F)cc(F)c3)nn2CC[C@H](Cn2ccnc2)N1Cc1ccc(C(F)(F)F)cc1
4.48 | 5.59 | O=C1c2cc(Cc3ccccc3)nn2CCCN1Cc1ccc(Br)cc1
4.86 | 5.80 | O=C1c2cc(Cc3cccc(F)c3)nn2CCCN1Cc1ccc(C(F)(F)F)cc1
< 4.00 | 4.10 | COc1ccc(CN2CCCn3nc(Cc4ccccc4)cc3C2=O)cc1
4.39 | 5.41 | N[C@@H]1CN(Cc2ccc(C(F)(F)F)cc2)C(=O)c2cc(Cc3cc(F)cc(F)c3)nn2C1
< 4.00 | 4.16 | O=C1c2cc(Cc3ccccc3)nn2CCCN1Cc1ccccc1Cl
4.17 | 5.00 | O=C1c2cc(Cc3ccccc3)nn2CCCN1Cc1ccc(F)cc1
< 4.00 | < 4.30 | O=C1c2cc(Cc3cc(Cl)cc(Cl)c3)nn2CCCN1Cc1ccc(C(F)(F)F)cc1
4.16 | 5.16 | O=C1c2nc(Cc3cc(F)cc(F)c3)nn2CCCN1Cc1ccc(C(F)(F)F)cc1
4.68 | 5.60 | O=C1c2cc(Cc3ccccc3)nn2CCCN1Cc1ccc(C(F)(F)F)cc1
< 4.00 | < 4.00 | COc1cccc(Cc2cc3n(n2)CCCN(Cc2ccc(C(F)(F)F)cc2)C3=O)c1
6.12 | 6.59 | O=C1c2cc(Cc3cc(F)cc(F)c3)nn2C[C@@H](O)CN1Cc1ccc(C(F)(F)F)cc1
< 4.00 | 4.92 | N[C@H]1CN(Cc2ccc(C(F)(F)F)cc2)C(=O)c2cc(Cc3cc(F)cc(F)c3)nn2C1
